Values after ≈ are worked out from the molar mass of the structure shown. Residues, ends and D or L forms follow the SMILES beside them. *: point of attachment. X1 = CC1(C(=O)*)CCC2(C)CCC3(C)C(=CC(=O)C4C5(C)CCC(O)C(C)(C)C5CCC43C)C2C1
Experiments:
[1] = tested on: Escherichia coli ATCC25922; assay: Well diffusion assay, Escherichia coli; format: cell-based
Protocol: (§1) The newly synthesized peptides 1–8 (compound 6 was not tested) was evaluated for their antimicrobial activity of against three pathogenic Gram-positive bacteria (Staphylococcus aureus ATCC25923, Streptococcus pneumoniaRCMB 010010, and Micrococcus Luteus), three pathogenic Gram-negative bacteria viz. Escherichia coli ATCC25922, Pseudomonas aeruginosa ATCC7853, and Proteus vulgaris RCMB 010085, and the yeast Candida albicans using the well diffusion method. […] The obtained data were documented for each derivative as the average diameter of the inhibition zones (IZ) in mm for the bacterial or the yeast growth around the discs (Table 2). […] Although Micrococcus Luteus bacteria is a normal commensal of human skin and the upper respiratory tract, it acts as an opportunistic pathogen and has been associated with various diseases including meningitis, septic arthritis, and endocarditis. […] Antimicrobial activity of the tested chemical peptides was determined by the well diffusion method for pathogenic bacteria having Gram-positive bacteria (Staphylococcus aureus ATCC25923, Streptococcus pneumonia, and Micrococcus luteus) and Gram-negative bacteria (Escherichia coli ATCC25922, Pseudomonas aeruginosa ATCC7853, and Proteus sp.) and Candida albicans as human pathogen yeast using the well diffusion method.

[2] = tested on: human breast MCF-7 cancer cell line; assay: MTT cytotoxicity assay, breast MCF-7 cancer cell line; format: cell-based; conditions: for IC50: Homo sapiens, MCF7, MTT, mean of three replicates, read-out: IC50 (µg/mL) ± SD MCF-7; for cytotoxicity percentage: MCF-7, 10 µg/mL
Protocol: (§2) Accordingly, all the newly synthesized GA-based peptides except 1 and 6 were screened for their cytotoxicity against three different human cancer cell lines: MCF-7, HCT-116, and HepG-2 cell lines at different concentrations (10, 5, 2.5, 1.25, and 0.625 µg/mL).
(§3) Human breast MCF-7, colon HCT-116, and liver HepG-2 carcinoma cell line were taken from Vacsera (Giza, Egypt). The culture was retained in RPMI 1640 medium with 1% antibiotic–antimycotic mixture (25 μg/mL amphotericin B, 10,000 μg/mL streptomycin sulfate, and 10,000 U/mL potassium penicillin), 1% L-glutamine, and complemented by 10% heat inactivated fetal bovine serum. […] This experiment was carried out according to the reported MTT assay method, and the absorbance was measured at 595 nm.

[3] = tested on: Staphylococcus aureus ATCC25923; assay: Well diffusion assay, Staphylococcus aureus; format: cell-based
Protocol: as §1

Micrococcus Luteus = assay: Well diffusion assay, Micrococcus Luteus; format: cell-based
Protocol: as §1

[4] = tested on: human colon HCT-116 cancer cell line; assay: MTT cytotoxicity assay, colon HCT-116 cancer cell line; conditions: for IC50: Homo sapiens, HCT-116, read-out: IC50 (µg/mL) ± SD HCT-116
Protocol: as §2, §3

[5] = tested on: Streptococcus pneumonia RCMB 010010; assay: Well diffusion assay, Streptococcus pneumonia; format: cell-based; conditions: Streptococcus pneumonia RCMB 010010, well diffusion
Protocol: as §1

[6] = tested on: Pseudomonas aeruginosa ATCC7853; assay: Well diffusion assay, Pseudomonas aeruginosa; format: cell-based
Protocol: as §1

[7] = tested on: Proteus vulgaris RCMB 010085; assay: Well diffusion assay, Proteus vulgaris; format: cell-based; conditions: Proteus vulgaris RCMB 010085, well diffusion
Protocol: as §1

[8] = tested on: human liver cancer (HepG-2) cell line; assay: MTT cytotoxicity assay, liver HepG-2 cancer cell line; format: cell-based
Protocol: as §2, §3

[9] = tested on: human normal skin fibroblasts cell line BJ-1; assay: Cytotoxicity against normal skin fibroblasts BJ-1; format: cell-based; conditions: BJ-1, 10 µg/mL
Protocol: The frequency and severity of side effects to normal cells at therapeutic levels is one of the most critical factors that distinguish different anticancer drugs from each other. Accordingly, the GA peptides 1–8 were furthermore screened for their cytotoxicity at 10 µg/mL against the human normal skin fibroblasts cell line BJ-1 to determine their safety upon normal cells (Figure 4).

MCF-7 cells = assay: DNA fragmentation through DPA assay in MCF-7 cells; format: cell-based, human; conditions: treated MCF-7 cells; untreated 7.8%
Protocol: Caspases are a family of cysteine proteases that are responsible for launching the programmed cell death (apoptosis). […] Cell shrinkage, chromatin condensation, and DNA fragmentation are all apoptosis events, which need the involvement of caspase-7and caspase-3 [48, 54, 56].
Assessment of DNA fragmentation of the cells was done, as described by the reported method. Briefly, the cells were lysed for 15 min on ice with 0.5% (v/v) Triton X-100, 20 mM EDTA, and […] Tris (pH 8.0). Then, the cells were centrifuged to separate intact chromatin from DNA fragments for 20 min, at 27,000 Xg. Measurement of the amount of DNA was done using a diphenylamine reagent, and the optical density was measured at 600 nm.

Candida albicans = assay: Well diffusion assay, Candida albicans; format: cell-based
Protocol: as §1

Row | Structure (SMILES) | Diameter of Inhibition Zone (mm) [1] [mm] | IC50 [2] [µg/mL] | Diameter of Inhibition Zone (mm) [3] [mm] | Diameter of Inhibition Zone (mm) (Micrococcus Luteus) | cytotoxicity percentage ([4]; HCT-116, 10 µg/mL) | IC50 [4] [µg/mL] | Diameter of Inhibition Zone (mm) [5] [mm] | melting point [°C] | Diameter of Inhibition Zone (mm) [6] [mm] | cytotoxicity percentage [2] | Diameter of Inhibition Zone (mm) [7] [mm] | cytotoxicity percentage ([8]; HepG-2, 10 µg/mL) [%] | IC50 ([8]; Homo sapiens, HepG2, MTT, mean of three replicates, read-out: IC50 (µg/mL) ± SD HepG-2) [µg/mL] | cytotoxic effect on normal cells BJ-1 [9] [%] | percentage of DNA fragmentation (MCF-7 cells) [%] | Diameter of Inhibition Zone (mm) (Candida albicans) | cytotoxicity percentage ([4]; human, 10 µg/mL) [%]
1 | CCCC(NC(=O)C(CC(C)C)NC(=O)OC(C)(C)C)C(=O)OC1CCC2(C)C(CCC3(C)C2C(=O)C=C2C4CC(C)(C(=O)NCC(=O)NCC(=O)OCC)CCC4(C)CCC23C)C1(C)C (stereo not shown) [Compound 2, 11-(2-(2-Ethoxy-2-oxoethylamino)-2-oxoethylcarbamoyl)-4,4,6a,6b,8a,11,14b-heptamethyl-14-oxo-1,2,3,4,4a,5,6,6a,6b,7,8,8a,9,10,11,12,12a,14,14a,14b-icosahydropicen-3-yl 2-(2-(tert-Butoxycarbonylamino)-4-methylpentanamido)pentanoate] | 18 ± 0.14 | 7.7 ± 1.3 (≈ 8.32 µM) | 17 ± 0.11 | 30 ± 0.13 | 92.63% | 70.3 ± 0.9 (≈ 76 µM) | 12 ± 0.82 | 169 to 171 | 15 ± 0.25 |  |  |  |  |  |  |  | 
2 | COC(=O)C(CC(C)C)NC(=O)CNC(=O)CNC(=O)C1(C)CCC2(C)CCC3(C)C(=CC(=O)C4C5(C)CCC(O)C(C)(C)C5CCC43C)C2C1 (stereo not shown) [Compound 6, Methyl 2-(2-(2-(10-Hydroxy-2,4a,6a,6b,9,9,12a-heptamethyl-13-oxo-1,2,3,4,4a,5,6,6a,6b,7,8,8a,9,10,11,12,12a,12b,13,14b-icosahydropicene-2-carboxamido)acetamido)acetamido)-4-methylpentanoate] |  |  |  |  | weak effect |  |  | 170 to 172 |  | weak cytotoxic effect |  |  |  |  |  |  | 
3 | CNC(C)C1CCC(N)C(OC2C(N)CC(N)C(OC3OCC(C)(O)C(NC)C3O)C2O)O1 (stereo not shown) [GM, gentamicin, reference compound] | 26.3 ± 0.15 |  | 25.4 ± 0.18 | 24.4 ± 0.72 |  |  | 27.2 ± 0.80 |  | 24.41 ± 0.18 |  | 20.0 ± 0.30 |  |  |  |  |  | 
4 | CC(C)CC(NC(=O)CNC(=O)CNC(=O)C1(C)CCC2(C)CCC3(C)C(=CC(=O)C4C5(C)CCC(O)C(C)(C)C5CCC43C)C2C1)C(=O)O (stereo not shown) [Compound 7, 2-(2-(2-(10-Hydroxy-2,4a, 6a, 6b, 9,9, 12a-heptamethyl-13-oxo-1,2,3,4,4a, 5,6,6a, 6b, 7,8,8a, 9, 10, 11, 12, 12a, 12b, 13, 14b-icosahydropicene-2-carboxamido)acetamido)acetamido)-4-methylpentanoic Acid] | 15 ± 0.21 | 3.7 ± 0.2 (≈ 5.3 µM) |  | 30 ± 0.11 | 98.06% | 3 ± 1.1 (≈ 4.3 µM) |  | 210 to 212 | 13 ± 0.14 |  | 12 ± 0.14 | 96.76 | 3.3 ± 0.1 (≈ 4.73 µM) |  |  |  | 
5 | CCOC(=O)CNC(=O)CNC(=O)C1(C)CCC2(C)CCC3(C)C(=CC(=O)C4C5(C)CCC(O)C(C)(C)C5CCC43C)C2C1 (stereo not shown) [Compound 1, Ethyl 2-(2-(10-Hydroxy-2,4a,6a,6b,9,9,12a-heptamethyl-13-oxo-1,2,3,4,4a,5,6,6a,6b,7,8,8a,9,10,11,12,12a,12b,13,14b-icosahydropicene-2-carboxamido)acetamido)acetate] | 20 ± 0.25 |  | 15 ± 0.16 | 30 ± 0.21 | weak effect |  | 15 ± 0.16 | 160 to 162 | 18 ± 0.15 | 65.3% |  |  |  | 7 |  |  | 
6 | COc1cc2c(c(OC)c1OC)-c1ccc(OC)c(=O)cc1[C@@H](NC(C)=O)CC2 [colchicine, reference compound] |  |  |  |  |  |  |  |  |  |  |  |  |  |  | 40.7 |  | 
7 | CC1(C(=O)NCC(=O)NCC(=O)O)CCC2(C)CCC3(C)C(=CC(=O)C4C5(C)CCC(O)C(C)(C)C5CCC43C)C2C1 (stereo not shown) [Compound 3, 2-(2-(10-Hydroxy-2,4a,6a,6b,9,9,12a-heptamethyl-13-oxo-1,2,3,4,4a,5,6,6a,6b,7,8,8a,9,10,11,12,12a,12b,13,14b-icosahydropicene-2-carboxamido)acetamido)acetic acid] | 16 ± 0.31 | 5.1 ± 0.7 (≈ 8.72 µM) | 17 ± 0.32 | 30 ± 0.25 | 97.66% | 7.4 ± 0.4 (≈ 12.7 µM) | 17 ± 0.21 | 207 to 209 | 15 ± 0.18 |  | 17 ± 0.17 |  |  | 2 |  | 12 ± 0.23 | 
8 | CCOC(=O)CNC(=O)CNC(=O)CNC(=O)CNC(=O)C1(C)CCC2(C)CCC3(C)C(=CC(=O)C4C5(C)CCC(O)C(C)(C)C5CCC43C)C2C1 (stereo not shown) [Compound 4, Ethyl 1-(10-Hydroxy-2,4a,6a,6b,9,9,12a-heptamethyl-13-oxo-1,2,3,4,4a,5,6,6a,6b,7,8,8a,9,10,11,12,12a,12b,13,14b-icosahydropicen-2-yl)-1,4,7,10-tetraoxo-2,5,8,11-tetraazatridecan-13-oate] (X1-GGGG-OEt) | 13 ± 0.15 | 6.1 ± 0.4 (≈ 8.39 µM) | 10 ± 0.13 | 29 ± 0.13 |  | 73 ± 1.4 (≈ 100 µM) | 11 ± 0.24 | 130 to 133 | 13 ± 0.16 |  | 12 ± 0.23 |  |  |  |  | 15 ± 0.12 | 84.80
9 | COC(=O)C(CC(C)C)NC(=O)CNC(=O)CNC(=O)C1(C)CCC2(C)CCC3(C)C(=CC(=O)C4C5(C)CCC(OC(=O)CNC(=O)CNC(=O)OC(C)(C)C)C(C)(C)C5CCC43C)C2C1 (stereo not shown) [Compound 8, Methyl 2-(2-(2-(10-(2-(2-(Tert-butoxycarbonylamino)acetamido)acetoxy)-2,4a,6a,6b,9,9,12a-heptamethyl-13-oxo-1,2,3,4,4a,5,6,6a,6b,7,8,8a,9,10,11,12,12a,12b,13,14b-icosahydropicene-2-carboxamido)acetamido)acetamido)-4-methylpentanoate] | 15 ± 0.16 | 6.9 ± 1.1 (≈ 7.45 µM) | 13 ± 0.24 | 30 ± 0.17 | 97.10% | 60.7 ± 0.6 (≈ 65.5 µM) | 12 ± 0.22 |  | 14 ± 0.16 |  |  |  |  |  |  |  | 
10 | CC(=O)N1CCN(c2ccc(OCC3COC(Cn4ccnc4)(c4ccc(Cl)cc4Cl)O3)cc2)CC1 (stereo not shown) [KC, ketoconazole, reference compound] |  |  |  |  |  |  |  |  |  |  |  |  |  |  |  | 22.8 ± 0.10 | 
